# Results from patent US8633315B2, “Substituted hydroxyethyl amine compounds as beta-secretase modulators and methods of use” (Amgen Inc., priority 2007, dated 2014).
# Where two headings read alike, the source gives them in different places.
# Tests used:
# [1] = tested on: Abeta peptide; experiment: In vivo inhibition of beta-secretase: Abeta peptide in CSF and brain after oral dosing; settings: orally dosed at about 30 mg/kg; for inhibition in vivo at 30 mg/kg: Rattus norvegicus, po, CSF, read-out: reduction of Abeta peptide in the CSF of the rat
# From the text: In Vivo Inhibition of Beta-Secretase
# Several animal models, including mouse, rat, dog, and monkey, may be used to screen for inhibition of beta-secretase activity in vivo following administration of a test compound sample. Animals used in this invention can be wild type, transgenic, or gene knockout animals. For example, the Tg2576 mouse model, prepared and conducted as described in Hsiao et al., 1996, Science 274, 99-102, and other non-transgenic or gene knockout animals are useful to analyze in vivo inhibition of Amyloid beta peptide (Abeta) production in the presence of inhibitory test compounds. Generally, 2 to 18 month old Tg2576 mice, gene knockout mice or non-transgenic animals are administered test compounds formulated in vehicles, such as cyclodextran, phosphate buffers, hydroxypropyl methylcellulose or other suitable vehicles. […] A separate group of animals receive 2% hydroxypropyl methylcellulose, 1% Tween80 alone, containing no test compound, and serve as a vehicle-control group. At the end of the test period, animals are sacrificed and brain tissues, plasma or cerebrospinal fluid are collected. Brains are either homogenized in 10 volumes (w/v) of 0.2% diethylamine (DEA) in 50 mM NaCl (Best et al., 2005, Journal of Pharmacology and Experimental Therapeutics, 313, 902-908), or in 10 volumes of 0.5% TritonX-100 in Tris-buffered saline (pH at about 7.6). Homogenates are centrifuged at 355,000 g, 4° C. for 30 minutes. CSF or brain supernatants are then analyzed for the presence of Abeta peptide by specific sandwich ELISA assays based on ECL (Electrochemiluminescence) technology. For example, rat Abeta40 is measured using biotinylated-4G8 (Signet) as a capture antibody and Fab40 (an in-house antibody specific to the C-terminal of Abeta40) as a detection antibody. For example, 4 hours after administration of 30 mg/kg oral dose of the test compound in 2% hydroxypropyl methylcellulose, 1% Tween80 (pH2.2) to 200 g male Sprague Dawley rats, Abeta peptide levels are measured for reduction by X % and Y % in cerebrospinal fluid and brain, respectively, when compared to the levels measured in the vehicle-treated or control […].
# Actual vehicles used: Oral: 2% HPMC, 1% Tween80, pH 2.2
# • IV: 5% EtOH, 45% Propylene glycol in 5% Dextrose
# [2] = target: BACE1 (Homo sapiens, UniProt P56817); experiment: In vitro enzymatic BACE FRET (fluorescence resonance energy transfer) assay; type: biochemical
# Sequence of BACE1 (P56817 46-501, species assumed): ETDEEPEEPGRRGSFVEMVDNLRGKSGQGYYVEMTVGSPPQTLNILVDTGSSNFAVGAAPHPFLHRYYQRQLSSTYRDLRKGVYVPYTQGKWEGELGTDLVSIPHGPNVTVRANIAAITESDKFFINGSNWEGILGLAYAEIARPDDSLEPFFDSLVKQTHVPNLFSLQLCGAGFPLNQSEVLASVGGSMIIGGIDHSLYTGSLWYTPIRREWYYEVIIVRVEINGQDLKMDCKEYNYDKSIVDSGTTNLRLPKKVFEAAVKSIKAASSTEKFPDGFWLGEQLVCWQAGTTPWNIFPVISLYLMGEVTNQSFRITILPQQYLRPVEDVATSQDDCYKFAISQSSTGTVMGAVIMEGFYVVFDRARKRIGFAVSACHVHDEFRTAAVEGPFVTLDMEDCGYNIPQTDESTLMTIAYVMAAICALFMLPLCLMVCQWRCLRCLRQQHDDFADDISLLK
# Outline: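 Fluorescence (ex 488 nm, […]) was read after Tris addition raised pH to neutral, ending a one-hour incubation. Reaction started with 50 nM fluorophore/quencher peptide substrate in pH 4.2 acetate (0.05 M) containing 100 uM genapol and 10% DMSO final.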
# [3] = Microsomal stability assay, human liver microsomes; type: in vitro ADME
# From the text: (§1) Microsomal Stability Assay
# [4] = Microsomal stability assay, rat liver microsomes; type: in vitro ADME
# From the text: as §1
# [5] = target: CYP3A (Homo sapiens, UniProt P08684); experiment: CYP3A inhibition assay (midazolam, pooled human liver microsomes); type: in vitro ADME; settings: microsomes
# Sequence of CYP3A (P08684 2-503): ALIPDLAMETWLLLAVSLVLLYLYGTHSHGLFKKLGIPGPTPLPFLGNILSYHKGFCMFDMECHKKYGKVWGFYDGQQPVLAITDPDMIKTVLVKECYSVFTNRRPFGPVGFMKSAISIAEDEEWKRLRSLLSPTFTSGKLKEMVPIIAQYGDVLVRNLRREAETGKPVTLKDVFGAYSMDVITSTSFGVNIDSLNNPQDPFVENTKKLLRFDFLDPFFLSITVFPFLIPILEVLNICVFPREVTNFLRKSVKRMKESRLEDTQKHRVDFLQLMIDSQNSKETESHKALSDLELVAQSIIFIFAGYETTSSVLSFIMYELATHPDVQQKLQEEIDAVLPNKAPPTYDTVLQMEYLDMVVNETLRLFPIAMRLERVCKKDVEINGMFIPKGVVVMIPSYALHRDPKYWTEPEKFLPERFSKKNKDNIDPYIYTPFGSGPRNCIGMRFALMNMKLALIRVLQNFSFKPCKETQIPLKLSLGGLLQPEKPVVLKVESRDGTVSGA
# [6] = tested on: Cells stably expressing Amyloid Precursor Protein (APP); experiment: In vitro BACE cell-based assay (HEK cell assay): Aβ40 in conditioned medium by sandwich ELISA
# Outline: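 Secreted Aβ40 was quantified by time-resolved fluorescence sandwich ELISA, capturing with pAb40 for 3 h at 4 °C and detecting with biotinylated 6E10 for 2 h at 4 °C. Media came from APP-expressing cells exposed 24 h to compounds (10-point series from 100 or 10 μM, 0.1% DMSO); IC50 derived from percent of control.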
# [7] = target: CYP3A4 (CYP3A) (Homo sapiens, UniProt P08684); experiment: CYP3A inhibition assay (midazolam, pooled human liver microsomes); type: in vitro ADME; settings: human, pooled human liver microsomes, pH 7.4, probe midazolam (printed as about […]); read-out: 3A4 IC50
# Sequence of CYP3A4 (CYP3A) (P08684 2-503): as above
# [8] = Homo sapiens, HEK293, 24 h, Aβ40 in conditioned medium after 24 h incubation
Compound,inhibition in vivo at 30 mg/kg [1] [%],IC50 [2] [nM],HLM [3] [µL/min/mg],RLM [4] [µL/min/mg],IC50 [5] [nM],IC50 ([2]; read-out: BACE 1 FRET assay) [nM],IC50 [6] [nM],"IC50 [6, 8] [nM]",reduction of Abeta peptide in the brain of the rat ([1]; brain) [%],IC50 at 10 min [7] [nM],"IC50 ([6]; Homo sapiens, HEK293) [nM]"
"C=CC[C@H](NC(=O)CF)[C@H](O)CN[C@H]1CC2(CCC2)Oc2ncc(CC(C)(C)C)cc21 [Example 90, N-((1S)-1-((1R)-2-(((4′S)-6′-(2,2-dimethylpropyl)-3′,4′-dihydrospiro[cyclobutane-1,2′-pyrano[2,3-b]pyridin]-4′-yl)amino)-1-hydroxyethyl)-3-buten-1-yl)-2-fluoroacetamide]",≥ 5,68,–,–,–,–,–,–,–,–,–
"N-((1S)-1-((1R)-2-(((4′S)-6′-(2,2-dimethylpropyl)-8′-(1-methyl-1H-imidazol-2-yl)-3′,4′-dihydrospiro[cyclobutane-1,2′-pyrano[2,3-c]pyridin]-4′-yl)amino)-1-hydroxyethyl)-3-buten-1-yl)-2-methoxyacetamide [Example 239]",–,–,311,340,1100,208,1500,–,–,–,–
"C=CC[C@H](NC(=O)CCOC)[C@H](O)CN[C@H]1CC2(CCC2)Oc2ncc(CC(C)(C)C)cc21 [Example 91, N-((1S)-1-((1R)-2-(((4′S)-6′-(2,2-dimethylpropyl)-3′,4′-dihydrospiro[cyclobutane-1,2′-pyrano[2,3-b]pyridin]-4′-yl)amino)-1-hydroxyethyl)-3-buten-1-yl)-3-(methyloxy)propanamide]",≥ 5,68,–,–,–,–,–,–,–,–,–
"CC#CCC(NC(=O)C1CCC(=O)O1)C(O)CNC1CC2(CCC2)Oc2ncc(CC(C)(C)C)cc21 [Example 88, (S)-N((2R,3S)-1((S)-2,2-spirocyclobutane-6-neopentyl-3′,4′-dihydro-2H-pyrano[2,3-b]pyridin]-4′-ylamino)-2-hydroxyhept-5-yn-3-yl)-5-oxo-tetrahydrofuran-2-carboxamide.]",≥ 5,20,–,–,–,–,–,72,–,–,–
"CC#CC[C@H](NC(=O)[C@@H](C)OC)[C@H](O)CN[C@H]1CC2(CCC2)Oc2ncc(CC(C)(C)C)cc21 [Example 87, (2R)-N-((1S)-1-((1R)-2-(((4′S)-6′-(2,2-dimethylpropyl)-3′,4′-dihydrospiro[cyclobutane-1,2′-pyrano[2,3-b]pyridin]-4′-yl)amino)-1-hydroxyethyl)-3-pentyn-1-yl)-2-(methyloxy)propanamide]",≥ 5,109,–,–,–,–,–,185,–,–,–
"CC#CC[C@H](NC(=O)COC)[C@H](O)CN[C@H]1CC2(CCC2)Oc2ncc(CC(C)(C)C)cc21 [Example 89, N-((1S)-1-((1R)-2-(((4′S)-6′-(2,2-dimethylpropyl)-3′,4′-dihydrospiro[cyclobutane-1,2′-pyrano[2,3-b]pyridin]-4′-yl)amino)-1-hydroxyethyl)-3-pentyn-1-yl)-2-(methyloxy)acetamide]",≥ 5,71,–,–,–,–,–,132,–,–,–
"C=CC[C@H](NC(=O)COC)[C@H](O)CN[C@H]1CC2(CCC2)Oc2c1cc(CC(C)(C)C)nc2NC [Example 47, N-((1S)-1-((1R)-2-(((4′S)-6′-(2,2-dimethylpropyl)-8′-(methylamino)-3′,4′-dihydrospiro[cyclobutane-1,2′-pyrano[2,3-c]pyridin]-4′-yl)amino)-1-hydroxyethyl)-3-buten-1-yl)-2-(methyloxy)acetamide]",–,164,–,–,–,–,–,38,~25,–,–
C=CC[C@H](NC(=O)CCC(C)(C)C)[C@H](O)CN[C@H]1CC2(CCC2)Oc2ncc(CC(C)(C)C)cc21 [compound 245],–,–,829,459,–,9250,–,–,–,300,10000
"C=CC[C@H](NC(=O)COC)[C@H](O)CN[C@H]1CC2(CCC2)Oc2c(-c3nccs3)cc(CC(C)C)cc21 [compound 212, N-((1S)-1-((1R)-1-hydroxy-2-(((4S)-6-(2-methylpropyl)-8-(1,3-thiazol-2-yl)-3,4-dihydrospiro[chromene-2,1′-cyclobutan]-4-yl)amino)ethyl)-3-buten-1-yl)-2-methoxyacetamide]",–,–,775,399,–,92,–,–,–,700,262
CCOC[C@H](NC(C)=O)[C@@H](O)CN[C@H]1CC2(CCC2)Oc2ncc(CC(C)(C)C)cc21 [compound 241],–,–,84,45,–,2720,–,–,–,3700,93
C=CC[C@H](NC(=O)COC)[C@H](O)CN[C@H]1CC2(CCC2)Oc2c(-c3cccnc3)cc(CC(C)(C)C)cc21 [compound 220],–,–,569,369,–,107,–,–,–,300,125
"C=CCC(NC(=O)COC)C(O)CNC1CC2(CC(O)C2)Oc2ncc(CC(C)(C)C)cc21 [Example 107, N-((1S)-1-((1R)-2-(((1s,3S,4′S)-6′-(2,2-dimethylpropyl)-3-hydroxy-3′,4′-dihydrospiro[cyclobutane-1,2′-pyrano[2,3-b]pyridin]-4′-yl)amino)-1-hydroxyethyl)-3-buten-1-yl)-2-(methyloxy)acetamide]",≥ 5,16,–,–,–,–,–,35,–,–,–
C=CC[C@H](NC(=O)COC)[C@H](O)CN[C@H]1CC2(CCC2)Oc2c1cc(CC(C)(C)C)nc2Nc1ccncc1 [compound 232],–,–,551,174,–,127,–,–,–,700,21
"C=CC[C@H](NC(C)=O)[C@H](O)CN[C@H]1CC2(CCC2)Oc2c1cc(CC(C)(C)C)nc2NC [Example 44, N-((1S)-1-((1R)-2-(((4′S)-6′-(2,2-dimethylpropyl)-8′-(methylamino)-3′,4′-dihydrospiro[cyclobutane-1,2′-pyrano[2,3-c]pyridin]-4′-yl)amino)-1-hydroxyethyl)-3-buten-1-yl)acetamide]",≥ 5,65,–,–,–,–,–,20,–,–,–
C=CC[C@H](NC(=O)COC)[C@H](O)CN[C@H]1CC2(CCC2)Oc2c(-c3ccncc3)cc(CC(C)(C)C)cc21 [compound 219],–,–,106,360,–,170,–,–,–,100,249
"CCC[C@H](NC(=O)[C@H]1CCCO1)[C@H](O)CN[C@H]1CC2(CCC2)Oc2c1cc(CC(C)(C)C)nc2NC [compound 228, (2R)-N-((1S)-1-((1R)-2-(((4′S)-6′-(2,2-dimethylpropyl)-8′-(methylamino)-3′,4′-dihydrospiro[cyclobutane-1,2′-pyrano[2,3-c]pyridin]-4′-yl)amino)-1-hydroxyethyl)butyl)tetrahydro-2-furancarboxamide]",–,–,165,345,–,627,–,–,–,1500,781
C=CC[C@H](NC(=O)[C@@H](C)OC)[C@H](O)CN[C@H]1CC2(CCC2)Oc2c(-c3nccs3)cc(CC(C)C)cc21 [compound 210],–,–,829,644,–,92,–,–,–,200,1110
COC[C@H](NC(C)=O)[C@H](O)CN[C@H]1CC2(CCC2)Oc2ncc(CC(C)(C)C)cc21 [compound 225],–,–,40,14,–,480,–,–,–,27000,462
